# Positions of bridges follow the written chain, without caps; N, C: chain ends. Residues, ends and D or L forms follow the SMILES beside them.
# Columns and labels:
# K. pneumoniae 5 [1] = assay: MIC against clinical isolate; type: cell-based, Klebsiella pneumoniae
# A. baumannii 1408 = assay: Transcriptome analysis (RNA sequencing, FPKM, DESeq); type: cell-based, Acinetobacter baumannii; conditions: Ab; Ta 16 μg/ml, 30 min, 37°C
# Description: (§1) The Vitek 32 system (bioMerieux, France) and 16S rDNA sequencing were used to verify the clinical isolates A. baumannii 1408, P. aeruginosa 1409, Klebsiella pneumoniae 5 and E. coli 513, which were grown overnight in Luria-Bertani (LB) medium at 37°C with constant shaking at 220 rpm to reach the middle of their logarithmic growth phase. […] After the addition of 2 volumes of RNAprotect Bacteria Reagent (QIAGEN) to stabilized RNA, samples were vortexed for 5 s, incubated for 5 min at room temperature (15–25°C) and collected by centrifugation at 4°C for 5 min at 4000 g.
# (§2) RNA isolation and sequencing were performed by Novogene Bioinformatics Technology Co., Ltd. (Beijing, China) as previously described ([Liu B. et al., 2014]). Clean reads were mapped to the corresponding bacterial genomes using Bowtie 2 software ([Langmead and Salzberg, 2012]). Gene expression was calculated using the FPKM (expected number of fragments per kilobase of transcript sequence per millions of base pairs sequenced) method with HTSeq software (union model) ([Anders et al., 2015]). Differentially expressed genes were selected based on the DESeq R package with Padj values < 0.05 ([Anders and Huber, 2010]). KEGG pathway analysis was performed using KOBAS (2.0), and the corrected p value cut-off was set at 0.05 ([Li et al., 2015]).
# K. pneumoniae 5 [2] = assay: as above; type: cell-based, Klebsiella pneumoniae; conditions: Kp; Ta 16 μg/ml, 30 min, 37°C
# Description: as §1, §2
compound,measurement,setting,value
"CC[C@H](C)[C@@H]1NC(=O)CNC(=O)[C@H](CCCNC(=N)N)NC(=O)[C@H](Cc2ccc(O)cc2)NC(=O)[C@@H]2CSSC[C@H](NC1=O)C(=O)N[C@@H](Cc1ccc(O)cc1)C(=O)N[C@@H](CCCNC(=N)N)C(=O)N[C@@H](CCCCN)C(=O)N[C@H](C(=O)N[C@@H](CCCNC(=N)N)C(N)=O)CSSC[C@H](NC(=O)[C@H](Cc1c[nH]c3ccccc13)NC(=O)[C@@H](N)CCCCN)C(=O)N[C@@H](Cc1ccccc1)C(=O)N[C@@H](CCCNC(=N)N)C(=O)N[C@@H](C(C)C)C(=O)N2 [tachyplesin III] (H-KWCFRVCYRGICYRKCR-NH2; disulfide 3-16, 7-12 (inferred); N-terminus and C-terminus assumed)",16 μg/ml tachyplesin III expressed as multiple of MIC,K. pneumoniae 5 [1],1/2
same,"Fold change after Ta treatment, gene A1S_2061 (3-ketoacyl-acyl carrier protein reductase)",A. baumannii 1408,2.89
same,"Fold change after Ta treatment, gene KPNJ2_01584 (Enoyl-CoA hydratase)",K. pneumoniae 5 [2],2
same,"Fold change after Ta treatment, gene KPNJ2_03426 (3-ketoacyl-acyl carrier protein reductase)",K. pneumoniae 5 [2],1.83

# Reference: article PMC5938390, “Tachyplesin Causes Membrane Instability That Kills Multidrug-Resistant Bacteria by Inhibiting the 3-Ketoacyl Carrier Protein Reductase FabG” (Frontiers in Microbiology, 2018)
